In patent US9580444B2, “Polycyclic pyrazolinone derivative and herbicide comprising same as effective component thereof” (priority 2013, dated 2017):

Key:
Type in all cases: in vivo
[1] = test system: corn; experiment: Test Example-4: phytotoxicity by a foliage treatment after weeds are generated under upland field conditions; details: 500 g a.i/ha, foliage treatment after emergence, about 14 days after treatment, score 0-5
How it was run: (§1)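 Weeds sown in upland soil (65 cm^2 vat) and grown 14 days, then foliage-sprayed with diluted wettable powder or emulsifiable concentrate at a predetermined dosage in 4000 L water per hectare. Weed control and corn phytotoxicity were scored about 14 days after treatment on a 0–5 scale.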

[2] = test system: corn; experiment: Test Example-2: phytotoxicity by a soil treatment before weeds are generated under upland field conditions; details: application amount 500 g a.i/ha, soil spray treatment before weeds are generated, about 21 days after the treatment, score 0 to 5
Source text: (§2) Using the formulation prepared according to the methods described above, the herbicidal effect of the bicyclic pyrazolinone derivative of the invention according to the methods shown in Test Examples below was examined. The herbicidal effect with respect to the test weeds or the phytotoxicity with respect to the test crops was examined according to the following criteria, and evaluated in six stage scores of 0 to 5. A vat having an area of 81 cm^2 and a depth of 3.5 cm was filled with upland soil, then, seeds of Amaranthus viridis (green amaranthus), Chenopodium album (common lambsquarters), and corn were seeded thereto, and the seeds were covered with soil of about 0.5 cm. Next day, a wettable powder or an emulsifiable concentrate of the compound of the present invention prepared according to Formulation Example was diluted, and a spray treatment was uniformly performed on the covered oil so as to be a predetermined dosage. The herbicidal effect with respect to the test weeds and the phytotoxicity with respect to corn about 21 days after the treatment were evaluated according to the evaluation criteria in six stages of 0 to 5 described above.

[3] = test system: Chenopodium album (common lambsquarters); experiment: Test Example-2: herbicidal effect by a soil treatment before weeds are generated under upland field conditions; details: application amount 500 g a.i/ha, soil spray treatment before weeds are generated, about 21 days after the treatment, score 0 to 5
Source text: as §2

[4] = test system: Amaranthus viridis (green amaranthus); experiment: as above; details: application amount 500 g a.i/ha, soil spray treatment before weeds are generated, about 21 days after the treatment, score 0 to 5
Source text: as §2

[5] = test system: Abutilon theophrasti (velvetleaf); experiment: Test Example-4: herbicidal effect by a foliage treatment after weeds are generated under upland field conditions; details: 500 g a.i/ha, foliage treatment after emergence, about 14 days after treatment, score 0-5
How it was run: as §1

[6] = test system: Chenopodium album (common lambsquarters); experiment: as above; details: 500 g a.i/ha, foliage treatment after emergence, about 14 days after treatment, score 0-5
How it was run: as §1

[7] = test system: Amaranthus viridis (green amaranthus); experiment: as above; details: 500 g a.i/ha, foliage treatment after emergence, about 14 days after treatment, score 0-5
How it was run: as §1

[8] = test system: Monochoria vaginalis (monochoria); experiment: Test Example-1: herbicidal effect by a treatment before weeds are generated under submerged conditions; details: 500 g a.i/ha, pre-emergence treatment, about 15 days after treatment, score 0-5
How it was run: (§3)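 Paddy-soil cups were puddled, sown with the weeds and kept submerged. On the seeding day, diluted wettable powder or emulsifiable concentrate was applied as a submersing treatment at a predetermined dosage. Herbicidal effect was scored 0–5 about 15 days after treatment.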

[9] = test system: Eleocharis acicularis (needle spikerush); experiment: as above; details: 500 g a.i/ha, pre-emergence treatment, about 15 days after treatment, score 0-5
How it was run: as §3

[10] = test system: Cyperus difformis (smallflower umbrella plant); experiment: as above; details: 500 g a.i/ha, pre-emergence treatment, about 15 days after treatment, score 0-5
How it was run: as §3

[11] = test system: Echinochloa oryzicola (barnyard grass); experiment: as above; details: 500 g a.i/ha, pre-emergence treatment, about 15 days after treatment, score 0-5
How it was run: as §3

[12] = test system: other annual broad leaf weeds (Lindernia procumbens, Rotala indica, Elatine triandra); experiment: as above; details: 500 g a.i/ha, pre-emergence treatment, about 15 days after treatment, score 0-5
How it was run: as §3

[13] = test system: Scirpus juncoides (bulrush); experiment: as above; details: 500 g a.i/ha, pre-emergence treatment, about 15 days after treatment, score 0-5
How it was run: as §3

SMILES	Phytotoxicity Corn [1]	Phytotoxicity Corn [2]	Herbicidal effect Chenopodium album [3]	Herbicidal effect Amaranthus viridis [4]	Herbicidal effect Abutilon theophrast [5]	Herbicidal effect Chenopodium album [6]	Herbicidal effect Amaranthus viridis [7]	Herbicidal effect Monochoria vaginalis [8]	Herbicidal effect Eleocharis acicularis [9]	Herbicidal effect Cyperus difformis [10]	Herbicidal effect Echinochloa oryzicola [11]	Herbicidal effect Broadleaf weed [12]	Herbicidal effect Scirpus juncoides [13]
O=c1c(-c2cc(OC3CCCC3)c(Cl)cc2F)c(Cl)n2n1CCCC2 [Example 1-181]	1 (Herbicidal effect/phytotoxicity was 10% to 30%)	0 (Herbicidal effect/phytotoxicity was 0% to 10%)	5 (Herbicidal effect/phytotoxicity was 90% or greater)	5 (Herbicidal effect/phytotoxicity was 90% or greater)	5 (Herbicidal effect/phytotoxicity was 90% or greater)	5 (Herbicidal effect/phytotoxicity was 90% or greater)	5 (Herbicidal effect/phytotoxicity was 90% or greater)	5 (Herbicidal effect/phytotoxicity was 90% or greater)	5 (Herbicidal effect/phytotoxicity was 90% or greater)	5 (Herbicidal effect/phytotoxicity was 90% or greater)	5 (Herbicidal effect/phytotoxicity was 90% or greater)	5 (Herbicidal effect/phytotoxicity was 90% or greater)	5 (Herbicidal effect/phytotoxicity was 90% or greater)
C#CCOc1cc(-c2c(Cl)n3n(c2=O)CCOCC3)c(F)cc1F [Example 1-368]	1 (Herbicidal effect/phytotoxicity was 10% to 30%)	0 (Herbicidal effect/phytotoxicity was 0% to 10%)	5 (Herbicidal effect/phytotoxicity was 90% or greater)	5 (Herbicidal effect/phytotoxicity was 90% or greater)	5 (Herbicidal effect/phytotoxicity was 90% or greater)	5 (Herbicidal effect/phytotoxicity was 90% or greater)	5 (Herbicidal effect/phytotoxicity was 90% or greater)	5 (Herbicidal effect/phytotoxicity was 90% or greater)	5 (Herbicidal effect/phytotoxicity was 90% or greater)	5 (Herbicidal effect/phytotoxicity was 90% or greater)	5 (Herbicidal effect/phytotoxicity was 90% or greater)	5 (Herbicidal effect/phytotoxicity was 90% or greater)	5 (Herbicidal effect/phytotoxicity was 90% or greater)
C#CCOc1cc(-c2c(Cl)n3n(c2=O)CCCCC3)c(Cl)cc1Cl [Example 1-303]	1 (Herbicidal effect/phytotoxicity was 10% to 30%)	0 (Herbicidal effect/phytotoxicity was 0% to 10%)	5 (Herbicidal effect/phytotoxicity was 90% or greater)	5 (Herbicidal effect/phytotoxicity was 90% or greater)	5 (Herbicidal effect/phytotoxicity was 90% or greater)	5 (Herbicidal effect/phytotoxicity was 90% or greater)	5 (Herbicidal effect/phytotoxicity was 90% or greater)	5 (Herbicidal effect/phytotoxicity was 90% or greater)	5 (Herbicidal effect/phytotoxicity was 90% or greater)	5 (Herbicidal effect/phytotoxicity was 90% or greater)	5 (Herbicidal effect/phytotoxicity was 90% or greater)	5 (Herbicidal effect/phytotoxicity was 90% or greater)	5 (Herbicidal effect/phytotoxicity was 90% or greater)
C#CC(C)Oc1cc(-c2c(Cl)n3n(c2=O)CCOCC3)c(F)cc1Cl (stereo not drawn) [Example 1-245]	1 (Herbicidal effect/phytotoxicity was 10% to 30%)	0 (Herbicidal effect/phytotoxicity was 0% to 10%)	5 (Herbicidal effect/phytotoxicity was 90% or greater)	5 (Herbicidal effect/phytotoxicity was 90% or greater)	5 (Herbicidal effect/phytotoxicity was 90% or greater)	5 (Herbicidal effect/phytotoxicity was 90% or greater)	5 (Herbicidal effect/phytotoxicity was 90% or greater)	5 (Herbicidal effect/phytotoxicity was 90% or greater)	5 (Herbicidal effect/phytotoxicity was 90% or greater)	5 (Herbicidal effect/phytotoxicity was 90% or greater)	5 (Herbicidal effect/phytotoxicity was 90% or greater)	5 (Herbicidal effect/phytotoxicity was 90% or greater)	5 (Herbicidal effect/phytotoxicity was 90% or greater)
C#CCOc1cc(-c2c(F)n3n(c2=O)CCCC3)c(Cl)cc1Cl [Example 1-358]	1 (Herbicidal effect/phytotoxicity was 10% to 30%)	0 (Herbicidal effect/phytotoxicity was 0% to 10%)	5 (Herbicidal effect/phytotoxicity was 90% or greater)	5 (Herbicidal effect/phytotoxicity was 90% or greater)	5 (Herbicidal effect/phytotoxicity was 90% or greater)	5 (Herbicidal effect/phytotoxicity was 90% or greater)	5 (Herbicidal effect/phytotoxicity was 90% or greater)	5 (Herbicidal effect/phytotoxicity was 90% or greater)	5 (Herbicidal effect/phytotoxicity was 90% or greater)	5 (Herbicidal effect/phytotoxicity was 90% or greater)	5 (Herbicidal effect/phytotoxicity was 90% or greater)	5 (Herbicidal effect/phytotoxicity was 90% or greater)	5 (Herbicidal effect/phytotoxicity was 90% or greater)
C=C(Cl)COc1cc(-c2c(Cl)n3n(c2=O)CCCC3)c(F)cc1Cl [Example 1-369]	1 (Herbicidal effect/phytotoxicity was 10% to 30%)	0 (Herbicidal effect/phytotoxicity was 0% to 10%)	5 (Herbicidal effect/phytotoxicity was 90% or greater)	5 (Herbicidal effect/phytotoxicity was 90% or greater)	5 (Herbicidal effect/phytotoxicity was 90% or greater)	5 (Herbicidal effect/phytotoxicity was 90% or greater)	5 (Herbicidal effect/phytotoxicity was 90% or greater)	5 (Herbicidal effect/phytotoxicity was 90% or greater)	5 (Herbicidal effect/phytotoxicity was 90% or greater)	5 (Herbicidal effect/phytotoxicity was 90% or greater)	5 (Herbicidal effect/phytotoxicity was 90% or greater)	5 (Herbicidal effect/phytotoxicity was 90% or greater)	5 (Herbicidal effect/phytotoxicity was 90% or greater)
